Results: paper PMC7822874, “Chemoprotective antimalarials identified through quantitative high-throughput screening of Plasmodium blood and liver stage parasites” (Scientific Reports, 2021)
Where “and” joins values, the source holds several entries; their conditions need not be identical. Equal values may be shown once. Read-outs that look alike come from different tables or passages of the source.

What was measured:
[1] = test system: T1, Plasmodium falciparum Dd2-attB (parental line), asexual blood stages; test: microbe, parasite or virus in culture; design: species or system P. falciparum Dd2-attB in human erythrocytes; SYBR Green-I proliferation assay, Dd2-attB parental line, asexual blood stages; settings: 72 h; for AC50: Plasmodium falciparum, DD2, Erythrocyte
T1 construct: Dd2-attB, the isogenic parental line

[2] = test system: T1, Plasmodium falciparum Dd2-attB (parental line), asexual blood stages; test: microbe, parasite or virus in culture; design: replicate k of 3 (each line is one of three independent assays; the three lines of one compound and parasite line follow each other); settings: n = 1; for Individual replicates / Log AC50 (M): 72 h; for AC50: Plasmodium falciparum, DD2, 72 h, read-out: Individual replicates / Log AC50 (converted)
How it was run: (§1)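 We compare activity in parasites carrying fumarate-using yeast DHODH with that in the parental line; mETC or parasite DHODH inhibitors are bypassed by this enzyme. Data come from three independent assays, analysed by two-sided Student's t-tests.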

[3] = test system: T2, Plasmodium falciparum Dd2-attB-ScDHODH (transgenic line expressing yeast DHODH), asexual blood stages; test: organism not typed; design: replicate k of 3 (each line is one of three independent assays; the three lines of one compound and parasite line follow each other)
T2 construct: Dd2-attB-ScDHODH, the transgenic line that expresses yeast DHODH
How it was run: as §1

[4] = read-out: Calculated / Average Log AC50 (M), mean of replicates, 72 h (converted)
[5] = 72 h; n = 1; read-out: Individual replicates / Log AC50 (converted)

| Compound | AC50 [1, 4] | Individual replicates / Log AC50 (M) [2] | AC50 [2] | Individual replicates / Log AC50 (M) ([3]; 72 h, n = 1) | AC50 [3, 5] | Individual replicates / Log AC50 (M) ([3]; 72 h; n = 1) | AC50 ([1]; read-out: Calculated / Average Log AC50 (M) (converted)) | Calculated / Average Log AC50 (M) ([1]; mean of replicates, inhibitor, Calculated / Average Log AC50 (M)) |
| --- | --- | --- | --- | --- | --- | --- | --- | --- |
| CCOC(=O)c1ccc(O)c2ncc(NCC3CCCN(CCc4ccccc4)C3)cc12 (centres unmarked) [NCGC00241755-01] | 8.28e-06 M | -5.1486 Log AC50 (M) and -4.8986 Log AC50 (M) | 6.33 µM | -5.0986 Log AC50 (M) | 6.33 µM | – | – | – |
| CCN(CCN(C)C)C(=O)c1cc(OCc2ccc(Cl)cc2C)n(-c2cc(C#N)ccn2)n1 [NCGC00493248-01] | 1.04e-05 M | -5.0486 Log AC50 (M) and -5.0986 Log AC50 (M) | 15.9 µM | -4.9486 Log AC50 (M) and -4.8486 Log AC50 (M) | 11.3 µM | – | – | – |
| CCCCN1CCCc2cc(CN(CCCN3CCOCC3)C(=O)Nc3ccc(OCC)cc3)ccc21 [NCGC00140593-02] | 1.36e-05 M | -4.9986 Log AC50 (M) and -4.7986 Log AC50 (M) | 15.9 µM | -4.8486 Log AC50 (M) and -4.7986 Log AC50 (M) | 17.8 µM | – | – | – |
| COc1ccc(-n2ncc(C(=O)N3CCc4ccccc4C3)c2C2CCN(C(=O)OC(C)(C)C)CC2)cc1 [NCGC00127123-02] | 7.97e-06 M | -5.2486 Log AC50 (M) and -4.9986 Log AC50 (M) | 8.94 µM | -4.7986 Log AC50 (M) and -4.8486 Log AC50 (M) | 14.2 µM | – | – | – |
| CN(C)c1cnc2c(O)ccc([S+](=O)([O-])Nc3ccccc3F)c2c1 [NCGC00189501-01] | 9.29e-06 M | -5.0986 Log AC50 (M) | 12.6 µM | -4.9986 Log AC50 (M) and -4.7986 Log AC50 (M) | 14.2 µM | – | – | – |
| O=C(Cc1ccc(O)cc1)N1CCC2(C1)CN(c1ccccc1)C2 [NCGC00510421-01] | 1.26e-05 M | -4.9486 Log AC50 (M) | 14.2 µM | -4.7986 Log AC50 (M) and -4.7486 Log AC50 (M) | 14.2 µM | – | – | – |
| COC(=O)c1ccnc2cc(C(OCCN3CCC(F)(F)CC3)c3ccccc3Cl)[nH]c12 (centres unmarked) [NCGC00408945-01] | 1.42e-05 M | – | 10 µM | – | 15.9 µM | – | – | – |
| Oc1ncnc2sc(C(OCCN3CCCCC3)c3ccccc3Cl)cc12 (centres unmarked) [NCGC00481361-01] | 1e-05 M | -5.0986 Log AC50 (M) | 8.94 µM | -5.0486 Log AC50 (M) | 15.9 µM | – | – | – |
| O=C(NCc1cccnc1)c1cccc(-c2cc(O)c3ncccc3c2)c1 [NCGC00244537-01] | 1.31e-05 M | -4.7986 Log AC50 (M) | 7.97 µM | -4.8486 Log AC50 (M) | 8.94 µM | – | – | – |
| CN(C)CCCOc1ccc(-c2cc(O)c3ncccc3c2)cn1 [NCGC00247741-01] | 9.65e-06 M | -4.7986 Log AC50 (M) and -5.1486 Log AC50 (M) and -5.0986 Log AC50 (M) | – | -4.7486 Log AC50 (M) and -5.0486 Log AC50 (M) | – | – | – | – |
| NC1CCN(c2cnc3c(O)ccc(C(=O)O)c3c2)CC1 [NCGC00241035-01] | 1.42e-05 M | -4.7986 Log AC50 (M) and -4.9986 Log AC50 (M) | 17.8 µM | – | 17.8 µM | – | – | – |
| Oc1ccc(COCc2ccccc2)c2cccnc12 [MLS000034722-02] | 1.13e-05 M | -4.8986 Log AC50 (M) | 8.94 µM | – | 14.2 µM | -4.8486 Log AC50 (M) | – | – |
| O=C(O)c1ccc(O)c2ncc(N3CCCN(CCc4cccc5ccccc45)CC3)cc12 [NCGC00247751-02] | 9.65e-06 M | -5.1486 Log AC50 (M) | 6.33 µM | -5.2486 Log AC50 (M) and -4.7486 Log AC50 (M) | – | – | – | – |
| CN(Cc1ccco1)Cc1ccc(O)c2ncccc12 [NCGC00183374-01] | 1.47e-05 M | – | 8.94 µM | -4.7986 Log AC50 (M) | 12.6 µM | – | – | – |
| CCOC(=O)c1ccc(O)c2ncc(N3CCC(C(=N)N)CC3)cc12 [NCGC00241051-01] | 1.08e-05 M | -5.1486 Log AC50 (M) | 12.6 µM | -4.7486 Log AC50 (M) and -4.8986 Log AC50 (M) | – | – | – | – |
| O=C(O)c1c2ccc(C(=O)N3CCOCC3)cc2n2ccccc12 [NCGC00390822-01] | 2e-06 M | -5.7986 Log AC50 (M) and -5.7486 Log AC50 (M) | 2.83 µM | -5.5986 Log AC50 (M) | 2.52 µM | – | – | – |
| CCOC(=O)c1ccc(O)c2ncc(N3CCNCC3)cc12 [NCGC00241046-01] | 5.86e-06 M | -5.2986 Log AC50 (M) and -5.0986 Log AC50 (M) | 5.03 µM | -5.3486 Log AC50 (M) | 5.03 µM | – | – | – |
| CCNC(=O)Oc1cc(-c2cccc(C(=O)NCCCc3ccccc3)c2)cc2cccnc12 [NCGC00372508-01] | – | -5.1986 Log AC50 (M) and -4.7486 Log AC50 (M) and -5.0986 Log AC50 (M) | – | -5.0486 Log AC50 (M) | 6.33 µM | – | 9.65e-06 M | – |
| Cc1cccc(C)c1Nc1c(-c2ccccn2)nc2ccc(Cl)cn12 [NCGC00106608-03] | 1.42e-05 M | -4.7986 Log AC50 (M) and -4.9486 Log AC50 (M) | 15.9 µM | – | 15.9 µM | -4.7986 Log AC50 (M) | – | – |
| C=C[S+](=O)([O-])N1CCCN(c2cc(N(CCC(=O)O)[S+](=O)([O-])C=C)nc(-c3ccccn3)n2)CC1 [NCGC00420875-01] | 1.53e-05 M | – | 11.3 µM | – | 15.9 µM | – | – | – |
| COc1ccc(NCc2cccn2-c2nnc(N3CCC(C)CC3)s2)c(OC)c1 [NCGC00127038-02] | 1.26e-05 M | -4.9986 Log AC50 (M) | 17.8 µM | -4.7486 Log AC50 (M) and -4.7986 Log AC50 (M) | 14.2 µM | – | – | – |
| Cc1ccccc1Nc1c(-c2ccccc2O)nc2sccn12 [NCGC00105919-03] | 1.08e-05 M | -4.8986 Log AC50 (M) and -5.0986 Log AC50 (M) | 12.6 µM | -4.8486 Log AC50 (M) and -5.0486 Log AC50 (M) | 8.94 µM | – | – | – |
| CC1CN(Cc2ccccc2)CCN1c1cnc2c(O)ccc(C(=O)O)c2c1 (centres unmarked) [NCGC00249384-01] | 1.59e-05 M | – | 14.2 µM | – | 17.8 µM | – | – | – |
| CCCN1C(CC(C)C)=N[S+](=O)([O-])c2cc(NC(=O)c3ccccc3)ccc21 [NCGC00510420-01] | 4.48e-07 M | -6.5486 Log AC50 (M) and -6.1986 Log AC50 (M) and -6.2986 Log AC50 (M) | – | -6.0486 Log AC50 (M) and -5.5486 Log AC50 (M) and -5.8486 Log AC50 (M) | – | – | – | – |
| Oc1ccc(CNc2cc(Br)ccn2)c2cccnc12 [NCGC00241030-01] | 6.58e-06 M | -5.2486 Log AC50 (M) and -5.0486 Log AC50 (M) | 5.64 µM | -5.2486 Log AC50 (M) and -5.1986 Log AC50 (M) and -4.8986 Log AC50 (M) | – | – | – | – |
| O=C(NCCCCN1CCOCC1)c1cccc(-c2cc(O)c3ncccc3c2)c1 [NCGC00249385-01] | 7.97e-06 M | -5.1986 Log AC50 (M) and -4.8986 Log AC50 (M) | 6.33 µM | -5.2486 Log AC50 (M) and -5.1486 Log AC50 (M) and -4.8486 Log AC50 (M) | – | – | – | – |
| O=C(O)c1ccnc(-n2ncc(C(OCCN3CCCCC3)c3ccccc3Cl)c2-c2cccc(-c3ccccc3)c2)c1 (centres unmarked) [NCGC00481639-01] | – | -5.3986 Log AC50 (M) and -5.5986 Log AC50 (M) | – | -4.9986 Log AC50 (M) and -5.1486 Log AC50 (M) | – | – | – | -5.482 M |
